Experimental data: ChEMBL document CHEMBL4842341, “Discovery of IACS-9779 and IACS-70465 as Potent Inhibitors Targeting Indoleamine 2,3-Dioxygenase 1 (IDO1) Apoenzyme” (J Med Chem, 2021)

What was measured:
in vivo [1] = conditions: NSG, mouse, tumor, po, 125 mg/kg
in vivo [2] = conditions: NSG, mouse, plasma, po, 125 mg/kg
in vivo [3] = conditions: CD1, mouse, iv, 0.3 mg/kg
in vivo [4] = conditions: CD1, mouse, iv, 0.3 mg/kg; remark: listed apart in the source
in vivo [5] = conditions: CD1, mouse, iv, 0.3 mg/kg; remark: listed apart in the source
in vivo [6] = conditions: CD1, mouse, iv, 0.3 mg/kg; remark: listed apart in the source
in vivo [7] = conditions: CD1, mouse, po, 10 mg/kg
in vivo [8] = conditions: CD1, mouse, po, 10 mg/kg; remark: listed apart in the source
in vitro [9] = conditions: human, liver microsomes
[10] = Drug concentration in tumor of NSG mouse xenografted with human SKOV3 cells at 125 mg/kg, po BID measured after 12 hrs by LC-MS analysis; assay type: ADME, organism-based, Neoplasm, SK-OV-3; conditions: read-out: Drug uptake
[11] = Drug concentration in plasma of NSG mouse xenografted with human SKOV3 cells at 125 mg/kg, po BID measured after 12 hrs by LC-MS analysis; assay type: ADME, organism-based, SK-OV-3
[12] = AUC in rat plasma at 250 mg/kg, po QD administered for 7 days; assay type: ADME, organism-based; set-up: dose 250 mg/kg, time 7 day
in vivo [13] = conditions: CD-1, mouse, iv, 0.3 mg/kg
in vivo [14] = conditions: CD-1, mouse, iv, 0.3 mg/kg; remark: listed apart in the source
in vivo [15] = conditions: CD-1, mouse, iv, 0.3 mg/kg; remark: listed apart in the source
in vivo [16] = conditions: CD-1, mouse, iv, 0.3 mg/kg; remark: listed apart in the source
in vivo [17] = conditions: CD-1, mouse, po, 10 mg/kg
in vivo [18] = conditions: CD-1, mouse, po, 10 mg/kg; remark: listed apart in the source
[19] = Apparent permeability across apical side to basolateral side in wild type MDCK cells; assay type: ADME, cell-based, Canis lupus familiaris; conditions: dog
[20] = Apparent permeability across basolateral side to apical side in MDCK cells; assay type: ADME, cell-based, Canis lupus familiaris; conditions: dog
[21] = Apparent permeability across apical side to basolateral side in MDCK-MDR1 cells; assay type: ADME, cell-based, Canis lupus familiaris; conditions: dog
[22] = Apparent permeability across basolateral side to apical side in MDCK-MDR1 cells; assay type: ADME, cell-based, Canis lupus familiaris; conditions: dog
in vitro [23] = conditions: rat, liver microsomes
[24] = Drug concentration in tumor of NSG mouse xenografted with human SKOV3 cells at 3 mg/kg, po QD measured at 24 hrs post dose; assay type: ADME, organism-based, Neoplasm, SK-OV-3; conditions: read-out: Drug uptake
[25] = Drug concentration in plasma of NSG mouse xenografted with human SKOV3 cells at 3 mg/kg, po QD measured at 24 hrs post dose; assay type: ADME, organism-based, SK-OV-3
[26] = Drug concentration in tumor of NSG mouse xenografted with human SKOV3 cells at 200 mg/kg, po BID measured after 12 hrs by LC-MS analysis; assay type: ADME, organism-based, Neoplasm, SK-OV-3; conditions: read-out: Drug uptake
[27] = Drug concentration in plasma of NSG mouse xenografted with human SKOV3 cells at 200 mg/kg, po BID measured after 12 hrs by LC-MS analysis; assay type: ADME, organism-based, SK-OV-3
in vivo [28] = conditions: NSG, mouse, tumor, po, 125 mg/kg; remark: listed apart in the source
in vivo [29] = conditions: NSG, mouse, plasma, po, 125 mg/kg; remark: listed apart in the source
in vivo [30] = conditions: NSG, mouse, tumor, po, 125 mg/kg; remark: listed apart in the source
in vivo [31] = conditions: NSG, mouse, plasma, po, 125 mg/kg; remark: listed apart in the source

A concentration at 120 h (in vivo [1]) of 600 nM and a concentration at 120 h (in vivo [2]) of 500 nM were found for `CC[C@@H](NC(=O)c1ccc(Cl)cc1)[C@H]1[C@@H]2C[C@@H](n3cnc4ccc(Cl)cc43)C[C@@H]21` in this work.
An AUC(0-inf) (in vivo [3]) of 106 µM·h, a half-life (in vivo [4]) of 33 h and a Vd (in vivo [5]) of 0.31 L/kg were found for `CC(NC(=O)c1ccc(C#N)cc1)[C@H]1[C@@H]2C[C@@H](Oc3ncnc4cc(F)ccc34)C[C@@H]21` (stereo not given in full) in this work. For the same compound, the clearance (in vivo [6]) was 0.117 mL/min/kg, the Cmax (in vivo [7]) was 44000 nM and the bioavailability (in vivo [8]) was 62%. The CLint scaled at 0.75 h, 1 µM (in vitro [9]) was 17 mL/min/kg.
A concentration at 12 h [10] of 610 nM, a concentration at 12 h [11] of 60 nM and an AUC at 168 h [12] of 95 µM·h were found for `C[C@H](C(=O)Nc1ccc(Cl)cc1)[C@H]1CC[C@@H](c2ccnc3ccc(F)cc32)CC1` in this work. The clearance at 24 h (in vivo [13]) was 33.3 mL/min/kg, the Vd at 24 h (in vivo [14]) was 4.5 L/kg and the half-life at 24 h (in vivo [15]) was 1.57 h. It also gave an AUC(0-inf) at 24 h (in vivo [16]) of 0.37 µM·h, a Cmax at 24 h (in vivo [17]) of 4100 nM and a bioavailability at 24 h (in vivo [18]) of 39%. The concentration at 120 h (in vivo [1]) was 900 nM, the concentration at 120 h (in vivo [2]) was 20 nM and the CLint scaled at 0.75 h, 1 µM (in vitro [9]) was 28 mL/min/kg.
A CLint scaled at 0.75 h, 1 µM (in vitro [9]) of 54 mL/min/kg was found for `CCC(NC(=O)c1ccc(Cl)cc1)[C@@H]1[C@@H]2C[C@H](Oc3ccnc4ccncc34)C[C@@H]21` (stereo not given in full) in this work.
A CLint scaled at 0.75 h, 1 µM (in vitro [9]) of 5.5 mL/min/kg was found for `CCC(NC(=O)c1ccc(Cl)cc1)[C@H]1[C@@H]2C[C@@H](n3cnc4cc(F)cc(F)c43)C[C@@H]21` (stereo not given in full) in this work.
A Papp A→B [19] of 5.53 ×10⁻⁶ cm/s, a Papp B→A [20] of 5.61 ×10⁻⁶ cm/s and a Papp A→B [21] of 3.7 ×10⁻⁶ cm/s were found for `CCC(NC(=O)c1ccc(Cl)cc1)[C@H]1[C@@H]2C[C@H](Oc3ccnc4ccccc34)C[C@@H]21` (stereo not given in full) in this work. The Papp B→A [22] was 2.07 ×10⁻⁶ cm/s, the CLint scaled at 0.75 h, 1 µM (in vitro [23]) was 956 mL/min/kg and the CLint scaled at 0.75 h, 1 µM (in vitro [9]) was 316 mL/min/kg.
A CLint scaled at 0.75 h, 1 µM (in vitro [9]) of 11.8 mL/min/kg was found for `CCC(NC(=O)c1ccc(Cl)cc1)[C@H]1[C@@H]2C[C@@H](n3cnc4ccc(F)cc43)C[C@@H]21` (stereo not given in full) in this work.
A CLint scaled at 0.75 h, 1 µM (in vitro [9]) of 100 mL/min/kg was found for `Fc1cc2ncn([C@H]3C[C@@H]4[C@@H](CNC(c5ccc(Cl)cc5)C(F)(F)F)[C@@H]4C3)c2cc1F` (stereo not given in full) in this work.
A concentration at 24 h [24] of 500 nM, a concentration at 24 h [25] of 1900 nM and a CLint scaled at 0.75 h, 1 µM (in vitro [9]) of 17 mL/min/kg were found for `CCC(c1nc2cc(Cl)ccc2[nH]1)[C@H]1[C@@H]2C[C@@H](c3ccnc4ccc(F)cc34)C[C@@H]21` (stereo not given in full) in this work.
A CLint scaled at 0.75 h, 1 µM (in vitro [9]) of 8.8 mL/min/kg was found for `CCC(NC(=O)c1ccc(Cl)cc1)[C@H]1[C@@H]2C[C@@H](n3cnc4ccncc43)C[C@@H]21` (stereo not given in full) in this work.
A CLint scaled at 0.75 h, 1 µM (in vitro [9]) of 227 mL/min/kg was found for `O=C(NC[C@H]1[C@H]2C[C@H](Oc3ccnc4ccc(F)cc34)C[C@@H]12)c1ccc(Cl)cc1` in this work.
A concentration at 12 h [26] of 5000 nM, a concentration at 12 h [27] of 690 nM and a clearance at 24 h (in vivo [13]) of 53.3 mL/min/kg were found for `NS(=O)(=O)NCCNc1nonc1C(=NO)Nc1ccc(F)c(Br)c1` [EPACADOSTAT] in this work. For the same compound, the Vd at 24 h (in vivo [14]) was 7.5 L/kg, the half-life at 24 h (in vivo [15]) was 1.6 h and the AUC(0-inf) at 24 h (in vivo [16]) was 0.21 µM·h. For the same compound, the Cmax at 24 h (in vivo [17]) was 2000 nM, the bioavailability at 24 h (in vivo [18]) was 50% and the concentration at 120 h (in vivo [28]) was 3200 nM. The concentration at 120 h (in vivo [29]) was 100 nM and the CLint scaled at 0.75 h, 1 µM (in vitro [23]) was 32 mL/min/kg.
A concentration at 120 h (in vivo [1]) of 5100 nM and a concentration at 120 h (in vivo [2]) of 2800 nM were found for `C[C@@H](NC(=O)c1ccc(Cl)cc1)[C@H]1[C@@H]2C[C@@H](n3cnc4cc(F)c(F)cc43)C[C@@H]21` in this work.
A concentration at 120 h (in vivo [30]) of 2300 nM and a concentration at 120 h (in vivo [31]) of 600 nM were found for `CC[C@@H](NC(=O)c1ccc(Cl)cc1)[C@H]1[C@@H]2C[C@@H](n3cnc4ccc(F)cc43)C[C@@H]21` (stereo in doubt; 56) in this work.
A CLint scaled at 0.75 h, 1 µM (in vitro [23]) of 7.2 mL/min/kg and a CLint scaled at 0.75 h, 1 µM (in vitro [9]) of 2.9 mL/min/kg were found for `O=C1CC(c2c[nH]c3ccc(F)cc23)C(=O)N1` (stereo not given) [PF-06840003] in this work.
A concentration at 120 h (in vivo [1]) of 100 nM and a concentration at 120 h (in vivo [2]) of 10 nM were found for `CC[C@@H](NC(=O)c1ccc(Cl)cc1)[C@H]1[C@@H]2C[C@@H](n3c(C)nc4ccc(F)cc43)C[C@@H]21` in this work.
A CLint scaled at 0.75 h, 1 µM (in vitro [23]) of 137 mL/min/kg and a CLint scaled at 0.75 h, 1 µM (in vitro [9]) of 171 mL/min/kg were found for `O=C(Nc1ccc(Cl)cc1)C1CC12CCC(Oc1ccnc3ccccc13)CC2` (stereo not given) in this work.
A CLint scaled at 0.75 h, 1 µM (in vitro [9]) of 39 mL/min/kg was found for `O=C(NC[C@H]1[C@H]2C[C@@H](Oc3ccnc4ccc(F)cc34)C[C@@H]12)c1ccc(Cl)cc1` in this work.
A CLint scaled at 0.75 h, 1 µM (in vitro [9]) of 38 mL/min/kg was found for `O=C(NC[C@@H]1[C@H]2C[C@@H](Oc3ccnc4ccc(F)cc34)C[C@@H]12)c1ccc(Cl)cc1` in this work.
A CLint scaled at 0.75 h, 1 µM (in vitro [9]) of 14 mL/min/kg was found for `CCC(NC(=O)c1ccc(Cl)cc1)[C@@H]1[C@@H]2C[C@H](Oc3ccnc4cccnc34)C[C@@H]21` (stereo not given in full) in this work.
